Where “and” joins values, the source holds several entries; their conditions need not be identical. Identical values can stand only once. Ends that are not written are not given here.
How the values were obtained:
[1] = test system: stem cells from apical papilla (SCAPs); assay: neural induction in vitro: neurosphere formation with βIII-TUBULIN / NESTIN immunofluorescence staining; assay type: cell-based, human
Excerpt: […]

KDM2B = assay: real-time fluorescence reverse transcription quantitative PCR, KDM2B/GAPDH in SCAPs; assay type: cell-based, human
Protocol: The plasmid was constructed according to standard methods. The complementary shRNA sequence targeting KDM2B gene was cloned into the viral vector pLKO.1 plasmid, sequenced and identified to complete the construction of the KDM2B shRNA plasmid. After PCR primers were designed for the full-length sequence of the KDM2B gene, the full-length sequence of the KDM2B gene was obtained by amplification, and the HA Tag was added. The tagged full-length KDM2B gene was ligated with the pQCXIN retroviral expression vector, sequenced and identified to obtain the plasmid containing the HA tagged full-length KDM2B gene. The virus packaging was carried out, and the resulting virus was collected, and the virus titer was measured. The virus was aliquoted and stored in the refrigerator at −80° C. The virus at a titer of 10-7 was incubated with stem cells from apical papillae in the presence of polybrene for 48 hours for infection, and the antibiotic was used to screen the infected cells. The sequence of the complementary shRNA targeting the KDM2B gene was represented as KDM2Bsh, with a nucleic acid sequence of 5′-[…]-3′ (SEQ ID NO: 287).

EZH2 protein = EZH2 protein (Homo sapiens, UniProt Q15910); assay: KDM2B polypeptide microarray immune-hybridization with biotin-labelled EZH2 protein; assay type: binding; conditions: for Intensity (%) (gray intensity of colored points on the KDM2B polypeptide microarray): biotin-labelled EZH2 1 μg/ml, highest optical density set to 100%, some points noise/spike; for binding site of KDM2B to EZH2 (positive / negative): polypeptide microarray
Excerpt: […]

[2] = test system: rat model of spinal cord injury (complete transection site T10 spinal cord); assay: rat model of spinal cord injury, local injection of peptide alone (BBB score, gross appearance); assay type: in vivo; conditions: SCI + peptide alone, 10 μg/ml in 30 μl weekly local injection, individual rats
Protocol: 10 μg/ml of peptide 46-47 in a total of 30 μl was weekly injected into 10-week-old rats at the complete transection site T10 spinal cord (5 individual rats per group).

[3] = test system: rat model of spinal cord injury (completely transected T10 spinal cord); assay: rat model of spinal cord injury, transplantation of stem cells from apical papilla (BBB score, gross appearance); assay type: in vivo; conditions: SCI + SCAPs pre-treated with 10 μg/ml peptide 24 hours, individual rats
Excerpt: […]

[4] = virally transfected SCAPs (overexpression or knockdown), Day 9, individual samples
[5] = SCAPs + 10 μg/ml peptide, Day 9 of induction, individual samples
[6] = SCAPs + 10 μg/ml peptide, Day 9 of induction, mean of 5 samples

Chain of EZH2 protein (Q15910 whole entry, species assumed): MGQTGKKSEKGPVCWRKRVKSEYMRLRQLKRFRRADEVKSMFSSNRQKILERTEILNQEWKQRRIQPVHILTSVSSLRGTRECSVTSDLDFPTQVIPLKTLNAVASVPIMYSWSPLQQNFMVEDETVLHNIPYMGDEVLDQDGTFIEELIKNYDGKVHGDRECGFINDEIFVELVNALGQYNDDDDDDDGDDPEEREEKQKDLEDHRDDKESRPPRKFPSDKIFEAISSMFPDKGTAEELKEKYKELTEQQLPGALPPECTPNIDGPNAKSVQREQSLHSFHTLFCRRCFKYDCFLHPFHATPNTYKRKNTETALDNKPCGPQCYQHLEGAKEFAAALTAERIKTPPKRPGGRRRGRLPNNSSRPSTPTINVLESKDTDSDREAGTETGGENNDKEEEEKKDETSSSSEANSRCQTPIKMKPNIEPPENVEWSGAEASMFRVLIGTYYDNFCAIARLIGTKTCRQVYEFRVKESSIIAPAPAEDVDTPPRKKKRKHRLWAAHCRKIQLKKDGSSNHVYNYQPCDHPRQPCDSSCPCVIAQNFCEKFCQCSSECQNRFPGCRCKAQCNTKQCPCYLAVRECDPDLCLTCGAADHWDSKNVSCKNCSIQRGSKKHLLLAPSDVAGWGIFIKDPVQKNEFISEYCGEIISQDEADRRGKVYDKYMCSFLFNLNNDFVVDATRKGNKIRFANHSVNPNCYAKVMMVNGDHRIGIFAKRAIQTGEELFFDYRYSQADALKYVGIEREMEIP

5′-ATTTTGACGGGGTGGATAATCTG-3′ (expressed or natural sequence) [KDM2Bsh, complementary shRNA targeting the KDM2B gene, cloned into viral vector pLKO.1, reference compound]
Number of NESTIN-positive neurospheres [1, 4]: 5 and 4 and 2 (2×) and 3
Number of βIII-TUBULI-positive neurospheres [1, 4]: 4 (2×) and 2 and 6 and 3
Number of βIII-TUBULI-positive neurospheres, Means ([1]; virally transfected SCAPs (overexpression or knockdown), Day 9, mean of 5 samples, Vector 9, Scramsh 9): 3.8
Number of NESTIN-positive neurospheres, Means ([1]; virally transfected SCAPs (overexpression or knockdown), Day 9, mean of 5 samples, Vector 11, Scramsh 8.2): 3.2
Expression of KDM2B/GAPDH in KDM2B-knockdown SCAPs (fold) (KDM2B; individual samples): 0.34 fold and 0.31 fold and 0.28 fold
Expression of KDM2B/GAPDH in KDM2B-knockdown SCAPs (fold), Means (KDM2B; mean of 3 samples, Scramsh 1.0003): 0.3067 fold

A V G T T T R D S L T E I N L (AVGTTTRDSLTEINL; synthesized KDM2B peptide) [compound 253]
Intensity (%) (gray intensity of colored points on the KDM2B polypeptide microarray) (EZH2 protein): 70.41%

C I M R Q C I A P V L P H T A (CIMRQCIAPVLPHTA; synthesized KDM2B peptide) [compound 130]
Intensity (%) (gray intensity of colored points on the KDM2B polypeptide microarray) (EZH2 protein): 30.8%

ConPP: control polypeptide synthesized from the negative binding sites (peptide 83-84) of KDM2B, with cell-penetrating peptide and FITC label (EEEACDQQPQEEEEKDEEGE; also: cell-penetrating peptide and FITC label, sites not given here)
BBB score of hind limb motor function ([2]; 1 w): 6 (3×) and 5 (2×)
BBB score of hind limb motor function ([2]; 2 w): 7 (2×) and 6 (2×) and 8
BBB score of hind limb motor function ([2]; 3 w): 9 (3×) and 10 and 8
BBB score of hind limb motor function ([2]; 4 w): 12 (2×) and 11 (3×)
BBB score of hind limb motor function [2]: 4 (3×) and 5 (2×)
BBB score of hind limb motor function ([3]; 0 w): 5 and 4 (4×)
BBB score of hind limb motor function ([3]; 1 w): 5 (3×) and 6 (2×)
BBB score of hind limb motor function ([3]; 2 w): 6 (2×) and 7 (3×)
BBB score of hind limb motor function ([3]; 3 w): 8 (3×) and 9 (2×)
BBB score of hind limb motor function ([3]; 4 w): 10 (2×) and 11 and 12 and 13
Number of NESTIN-positive neurosphers [1, 5]: 3 (2×) and 4 (2×) and 6
Number of βIII-TUBULIN-positive neurosphers [1, 5]: 8 (2×) and 6 (2×) and 7
Number of NESTIN-positive neurosphers, Means [1, 6]: 4
Number of βIII-TUBULIN-positive neurosphers, Means [1, 6]: 7

D Q Q P Q E E E E K D E E G E (DQQPQEEEEKDEEGE; synthesized KDM2B peptide) [peptide 84]
binding site of KDM2B to EZH2 (positive / negative) (EZH2 protein): negative

E E E A C D Q Q P Q E E E E K (EEEACDQQPQEEEEK; synthesized KDM2B peptide) [peptide 83]
binding site of KDM2B to EZH2 (positive / negative) (EZH2 protein): negative

G K Q S D I F L G D R V E R C (GKQSDIFLGDRVERC; synthesized KDM2B peptide) [compound 57]
Intensity (%) (gray intensity of colored points on the KDM2B polypeptide microarray) (EZH2 protein): 39.95%

I Y E I E D R T R V Q P K F R (IYEIEDRTRVQPKFR; synthesized KDM2B peptide) [compound 69]
Intensity (%) (gray intensity of colored points on the KDM2B polypeptide microarray) (EZH2 protein): 0.15%

L A V D Y P K T P T G S P A T (LAVDYPKTPTGSPAT; synthesized KDM2B peptide) [compound 98]
Intensity (%) (gray intensity of colored points on the KDM2B polypeptide microarray) (EZH2 protein): 0.77%

Q P K F R Y P F Y Y E M C W Y (QPKFRYPFYYEMCWY; synthesized KDM2B peptide) [compound 71]
Intensity (%) (gray intensity of colored points on the KDM2B polypeptide microarray) (EZH2 protein): 0.57%

T E I N L S D C N K V T D Q C (TEINLSDCNKVTDQC; synthesized KDM2B peptide) [compound 255]
Intensity (%) (gray intensity of colored points on the KDM2B polypeptide microarray) (EZH2 protein): 100%

T R D S L T E I N L S D C N K (TRDSLTEINLSDCNK; synthesized KDM2B peptide) [compound 254]
Intensity (%) (gray intensity of colored points on the KDM2B polypeptide microarray) (EZH2 protein): 100%

V L E R Y V Y C V T Q R S H L (VLERYVYCVTQRSHL; synthesized KDM2B peptide) [compound 74]
Intensity (%) (gray intensity of colored points on the KDM2B polypeptide microarray) (EZH2 protein): 0.25%
